According to patent US10434197B2, “Tetrazine-trans-cyclooctene ligation for the rapid construction of radionuclide labeled probes” (University of Delaware, priority 2010, dated 2019):
Read-outs that look alike come from different tables or passages of the source. Each block holds one compound with its values, some of them ahead of it.

Columns and labels:
[1] = in vivo; set-up: species or system mice; conditions: mouse, iv, 3.7 MBq, total radioactivity
Method: (§1) Animal procedures were performed according to a protocol approved by the University of Southern California Institutional Animal Care and Use Committee. For static microPET scans, mice bearing U87MG xenografts were injected with 3.7 MBq (100 μCi) of ^18F-41 via the tail vein (n=3 for each group). At 0.5, 1, and 2 h post injection (p.i.), the mice were anesthetized with isoflurane (5% for induction and 2% for maintenance in 100% O2) using a knock-down box. With the help of a laser beam attached to the scanner, the mice were placed in the prone position and near the center of the field of view of the scanner. The 3-min static scans were then obtained. Images were reconstructed using a 2-dimensional ordered-subsets expectation maximization (OSEM) algorithm. No background correction was performed. Regions of interest (ROIs; 5 pixels for coronal and transaxial slices) were drawn over the tumor on decay-corrected whole-body coronal images. The maximum counts per pixel per minute were obtained from the ROI and converted to counts per milliliter per minute using a calibration constant. With the assumption of a tissue density of 1 g/mL, the ROIs were converted to counts per gram per min. Image ROI-derived % ID/g values were determined by dividing counts per gram per minute with injected dose. No attenuation correction was performed. Similarly, ^18F-43 was injected into healthy nude mice for microPET study.
(§2) Representative coronal microPET images of U87MG tumor-bearing mice (n=3/group) were obtained at different times after intravenous injection of about 3.7 MBq (100 μCi) of ^18F-41. The tumors after injection of the radiotracers were all clearly visible with good contrast to contralateral background at all time points measured. […] Quantification of tumor and major organ activity accumulation in the microPET scans was achieved by measuring regions of interest (ROIs) encompassing the entire organ on the coronal images. Tumor and major organ uptake of ^18F-41 is depicted in FIG. 3A. The tumor uptake of ^18F-41 in U87MG tumor was 1.98±0.33, 1.80±0.15, and 1.27±0.33% ID/g at 0.5, 1, and 2 h p.i., respectively. The uptake of the ^18F-41 decreased rapidly with time in the muscle, affording better image contrast at later time points after injection (2 h).

[2] = system: U87MG tumor; experiment: in vivo; set-up: species or system mice; conditions: mouse
Method: as §1, §2

[3] = Stability and isomerization of Diels-Alder conjugate 10 in water, CD3CN/H2O, PBS; format: physicochemical; conditions: for rearrangement to ^19F-11, conversion: CD3CN/H2O
[4] = Stability of 16 in human serum; format: in vitro ADME; conditions: 24 hours
[5] = Rate of Diels-Alder reaction with 3,6-di(2-pyridyl)-s-tetrazine (1a); format: physicochemical
From the text: The inventors have previously described tetrazine-trans-cyclooctene ligation (‘ITCO ligation’) as a method of bioconjugation that proceeds with fast reaction rates without need for catalysis (M. L. Blackman, M. Royzen and J. M. Fox, J. Am. Chem. Soc. 2008, 130, 13518-13519) trans-Cyclooctene derivatives are readily prepared from cis-cyclooctenes using a photochemical flow-reaction that the inventors developed (M. Royzen, G. P. A. Yap and J. M. Fox, J. Am. Chem. Soc. 2008, 130, 3760-3761). […] Thus, the reaction between trans-cyclooctene and 1a proceeds with a rapid rate (k2˜2000 M^−1 s^−1 in 9:1 MeOH:water), and is successful in cell media and cell lysate.
The inventors also used a photochemical flow reactor (M. Royzen, G. Yap, and J. Fox, J. Am. Chem. Soc. 2008, 130 (12), 3760) to synthesize 16, an analog of 7 with a functionalizable group. The rate of the reaction of compound 16 with 3,6-di(2-pyridyl)-s-tetrazine (1a) in methanol was k2=22000 M^−1s^−1, […] than the reaction of 1a with trans-cyclooctene in the same solvent. […] Compound 16 can be readily converted into carbamate derivatives, and compound 16 can be selectively conjugated to the protein thioredoxin using the conjugation of maleimide 26 (vide infra) to a cysteine residue, and that conjugate can in turn can take part in tetrazine ligation analogous to that shown below for compound 16.

[6] = Chemical stability of 16 (water, amine, thiol); format: physicochemical; conditions: 24 hours
[7] = 9:1 MeOH:water; cited from earlier work

SMILES: N=C(N)NCCC[C@@H]1NC(=O)[C@H](CSC2CC(=O)N(CCNC(=O)CCCC(=O)Nc3ccc(C4=NN=C(c5ccccn5)C5CCCCC(OCCF)CC45)nc3)C2=O)NC(=O)[C@@H](Cc2ccc(O)cc2)NC(=O)[C@H](CC(=O)O)NC(=O)CNC1=O (stereo partly drawn) [^18F-41]
tissue uptake at 0.5 h [1]: 1.98 ± 0.33 %ID/g | tissue uptake at 1 h [1]: 1.8 ± 0.15 %ID/g | tissue uptake at 2 h [1]: 1.27 ± 0.33 %ID/g | excretion route [2]: mainly excreted through the renal system

stability in water [3]: stable | rearrangement to ^19F-11, conversion ([3]; after 4 hours): 11% | rearrangement to ^19F-11, conversion ([3]; after 48 hours): > 95%
SMILES: FCCO[C@@H]1CCC[C@@H]2C(c3ccccn3)=NN=C(c3ccccn3)[C@H]2CC1 [compound 10, 7-(2-fluoroethoxy)-1,4-di(pyridin-2-yl)-4a,5,6,7,8,9,10,10a-octahydrocycloocta[d]pyridazine]

stability [4]: no degradation | stability ([6]; 5 mM ethanethiol in MeOH): no degradation | stability ([6]; 5 mM n-butylamine in MeOH): no degradation | stability ([6]; water): no degradation
SMILES: OC[C@@H]1[C@H]2CC/C=C/CC[C@@H]12 [compound 16]
rate of reaction with 1a ([5]; aqueous solvent systems, UV-vis spectroscopy): too fast to measure | k2, reaction with 1a ([5]; methanol): 22000 M⁻¹ s⁻¹ | rate relative to reaction of 1a with trans-cyclooctene ([5]; same solvent (methanol)): 18 times faster

SMILES: C1=C/CCCCCC/1 [trans-cyclooctene]
k2, reaction with 1a [7]: ~2000 M⁻¹ s⁻¹
